Assay results taken from US6054435A, “6-O-substituted macrolides having antibacterial activity” (priority 1999, dated 2000).
Converted amounts (≈) assume the structure as drawn.

Assays:
Assay in all cases: in vitro antibacterial activity (MIC), agar dilution
Type in all cases: cell-based
[1] = system: Staphylococcus aureus CMX 553; conditions: organism code FF; BHI agar, 35-37° C., 20 to 24 hours; unit assumed
Procedure, shortened: (§1)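 Endpoint: lowest concentration with no growth, slight haze or sparsely isolated colonies at the inoculum spot, judged against a compound-free BHI control. Strains were replicator-inoculated at 1:100 (1:10 for Streptococcus and other slow growers).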

Escherichia coli SS = conditions: organism code RR; BHI agar, 35-37° C., 20 to 24 hours; unit assumed
Procedure, shortened: as §1

[2] = system: Staphylococcus aureus A5177; conditions: organism code BB; BHI agar, 35-37° C., 20 to 24 hours; unit assumed
Procedure, shortened: as §1

[3] = system: Streptococcus Pneumonia GYR 1171; conditions: organism code YY; BHI agar, 35-37° C., 20 to 24 hours; unit assumed
Procedure, shortened: as §1

Escherichia coli JUHL = conditions: organism code QQ; BHI agar, 35-37° C., 20 to 24 hours; unit assumed
Procedure, shortened: as §1

[4] = system: Nocardia Asteroides ATCC9970; conditions: organism code VV; BHI agar, 35-37° C., 20 to 24 hours; unit assumed
Procedure, shortened: as §1

[5] = system: Streptococcus bovis A-5169; conditions: organism code JJ; BHI agar, 35-37° C., 20 to 24 hours; unit assumed
Procedure, shortened: as §1

[6] = system: Enterococcus faecium ATCC 8043; conditions: organism code II; BHI agar, 35-37° C., 20 to 24 hours; unit assumed
Procedure, shortened: as §1

[7] = system: Staphylococcus epidermidis 3519; conditions: organism code HH; BHI agar, 35-37° C., 20 to 24 hours; unit assumed
Procedure, shortened: as §1

Escherichia coli DC-2 = conditions: organism code SS; BHI agar, 35-37° C., 20 to 24 hours; unit assumed
Procedure, shortened: as §1

[8] = system: Staphylococcus aureus NCTC10649M; conditions: organism code EE; BHI agar, 35-37° C., 20 to 24 hours; unit assumed
Procedure, shortened: as §1

[9] = system: Streptococcus pyogenes PIU 2548; conditions: organism code NN; BHI agar, 35-37° C., 20 to 24 hours; unit assumed
Procedure, shortened: as §1

[10] = system: Streptococcus Pneumonia 5979; conditions: organism code ZZ; BHI agar, 35-37° C., 20 to 24 hours; unit assumed
Procedure, shortened: as §1

Candida albicans CCH 442 = conditions: organism code TT; BHI agar, 35-37° C., 20 to 24 hours; unit assumed
Procedure, shortened: as §1

[11] = system: Micrococcus luteus ATCC 9341; conditions: organism code OO; BHI agar, 35-37° C., 20 to 24 hours; unit assumed
Procedure, shortened: (§2)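 Agar dilution in BHI agar, twelve successive compound dilutions. Inoculum 1:100, or 1:10 for slow-growing strains (e.g. Streptococcus), replicator-spotted. Read by eye; MIC = lowest concentration with no growth, slight haze or sparsely isolated colonies relative to growth control.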

[12] = system: Mycobacterium smegmatis ATCC 114; conditions: organism code UU; BHI agar, 35-37° C., 20 to 24 hours; unit assumed
Procedure, shortened: as §1

[13] = system: Haemophilis Influenzae DILL AMP R; conditions: organism code WW; BHI agar, 35-37° C., 20 to 24 hours; unit assumed
Procedure, shortened: as §1

[14] = system: Staphylococcus aureus CMX 642A; conditions: organism code DD; BHI agar, 35-37° C., 20 to 24 hours; unit assumed
Procedure, shortened: as §1

[15] = system: Streptococcus Pneumonia 5649; conditions: organism code ZZA; BHI agar, 35-37° C., 20 to 24 hours; unit assumed
Procedure, shortened: as §1

[16] = system: Streptococcus Pneumonia ATCC6303; conditions: organism code XX; BHI agar, 35-37° C., 20 to 24 hours; unit assumed
Procedure, shortened: as §1

[17] = system: Staphylococcus aureus A-5278; conditions: organism code CC; BHI agar, 35-37° C., 20 to 24 hours; unit assumed
Procedure, shortened: as §1

[18] = system: Micrococcus luteus ATCC 4698; conditions: organism code PP; BHI agar, 35-37° C., 20 to 24 hours; unit assumed
Procedure, shortened: as §2

[19] = system: Streptococcus pyogenes EES61; conditions: organism code LL; BHI agar, 35-37° C., 20 to 24 hours; unit assumed
Procedure, shortened: as §1

[20] = system: Staphylococcus aureus 1775; conditions: organism code GG; BHI agar, 35-37° C., 20 to 24 hours; unit assumed
Procedure, shortened: as §1

[21] = system: Staphylococcus aureus ATCC 6538P; conditions: organism code AA; BHI agar, 35-37° C., 20 to 24 hours; unit assumed
Procedure, shortened: as §1

[22] = system: Streptococcus agalactiae CMX 508; conditions: organism code KK; BHI agar, 35-37° C., 20 to 24 hours; unit assumed
Procedure, shortened: as §1

[23] = system: Streptococcus pyogenes 930; conditions: organism code MM; BHI agar, 35-37° C., 20 to 24 hours; unit assumed
Procedure, shortened: as §1

Row | Compound | MIC [1] [µg/mL] | MIC (Escherichia coli SS) [µg/mL] | MIC [2] [µg/mL] | MIC [3] [µg/mL] | MIC (Escherichia coli JUHL) [µg/mL] | MIC [4] [µg/mL] | MIC [5] [µg/mL] | MIC [6] [µg/mL] | MIC [7] [µg/mL] | MIC (Escherichia coli DC-2) [µg/mL] | MIC [8] [µg/mL] | MIC [9] [µg/mL] | MIC [10] [µg/mL] | MIC (Candida albicans CCH 442) [µg/mL] | MIC [11] [µg/mL] | MIC [12] [µg/mL] | MIC [14] [µg/mL] | MIC [15] [µg/mL] | MIC [16] [µg/mL] | MIC [17] [µg/mL] | also measured
1 | CC[C@H]1OC(=O)[C@H](C)C(=O)[C@H](C)[C@@H](O[C@@H]2O[C@H](C)C[C@H](N(C)C)[C@H]2O)[C@](C)(OC/C=C/c2cnc(-c3ncc(Br)s3)s2)C[C@@H](C)C(=O)[C@H](C)[C@H]2NC(=O)O[C@@]21C [Example 56] | 0.2 (≈ 0.226 µM) | 0.78 (≈ 0.882 µM) | 0.2 (≈ 0.226 µM) | 0.015 (≈ 0.017 µM) | > 10 | 0.39 (≈ 0.441 µM) | 0.05 (≈ 0.0566 µM) | 0.05 (≈ 0.0566 µM) | 0.2 (≈ 0.226 µM) | > 100 | 0.39 (≈ 0.441 µM) | 0.39 (≈ 0.441 µM) | 4 (≈ 4.53 µM) | > 100 | 0.05 (≈ 0.0566 µM) | 0.39 (≈ 0.441 µM) | 0.2 (≈ 0.226 µM) | 0.25 (≈ 0.283 µM) | 0.015 (≈ 0.017 µM) | 100 (≈ 113 µM) | MIC [13]: 8 µg/mL (≈ 9.05 µM); MIC [18]: 0.39 µg/mL (≈ 0.441 µM); MIC [19]: 0.05 µg/mL (≈ 0.0566 µM); MIC [20]: 50 µg/mL (≈ 56.6 µM); MIC [21]: 0.2 µg/mL (≈ 0.226 µM); MIC [22]: 0.05 µg/mL (≈ 0.0566 µM)
2 | CC[C@H]1OC(=O)[C@H](C)C(=O)[C@H](C)[C@@H](O[C@@H]2O[C@H](C)C[C@H](N(C)C)[C@H]2O)[C@](C)(OC/C=C/c2cncc(-c3cncc4ccccc34)c2)C[C@@H](C)C(=O)[C@H](C)[C@H]2NC(=O)O[C@@]21C [Example 48] | 0.2 (≈ 0.237 µM) | 0.78 (≈ 0.925 µM) | 0.2 (≈ 0.237 µM) | ≤ 0.004 | > 100 | 0.05 (≈ 0.0593 µM) | 0.02 (≈ 0.0237 µM) | 0.05 (≈ 0.0593 µM) | 0.2 (≈ 0.237 µM) | > 100 | 0.2 (≈ 0.237 µM) | 0.2 (≈ 0.237 µM) | 16 (≈ 19 µM) | > 100 | 0.05 (≈ 0.0593 µM) | 0.78 (≈ 0.925 µM) | 0.2 (≈ 0.237 µM) | 0.25 (≈ 0.297 µM) | ≤ 0.004 | > 100 | MIC [18]: 0.1 µg/mL (≈ 0.119 µM); MIC [19]: 0.05 µg/mL (≈ 0.0593 µM); MIC [23]: 100 µg/mL (≈ 119 µM); MIC [20]: > 100 µg/mL; MIC [21]: 0.2 µg/mL (≈ 0.237 µM); MIC [22]: 0.02 µg/mL (≈ 0.0237 µM)
3 | CC[C@H]1OC(=O)[C@H](C)C(=O)[C@H](C)[C@@H](O[C@@H]2O[C@H](C)C[C@H](N(C)C)[C@H]2O)[C@](C)(OCC#Cc2ccc(-c3cccc(Cl)c3)s2)C[C@@H](C)C(=O)[C@H](C)[C@H]2NC(=O)O[C@@]21C [Example 16] | 0.2 (≈ 0.241 µM) | 0.39 (≈ 0.47 µM) | 0.2 (≈ 0.241 µM) | 0.03 (≈ 0.0362 µM) | > 100 | 0.2 (≈ 0.241 µM) | 0.02 (≈ 0.0241 µM) | 0.1 (≈ 0.121 µM) | 0.2 (≈ 0.241 µM) | > 100 | 0.2 (≈ 0.241 µM) | 0.2 (≈ 0.241 µM) | 2 (≈ 2.41 µM) | > 100 | 0.02 (≈ 0.0241 µM) | 0.2 (≈ 0.241 µM) | 0.2 (≈ 0.241 µM) | 0.25 (≈ 0.301 µM) | 0.03 (≈ 0.0362 µM) | 25 (≈ 30.1 µM) | MIC [13]: 4 µg/mL (≈ 4.82 µM); MIC [18]: 0.2 µg/mL (≈ 0.241 µM); MIC [19]: 0.1 µg/mL (≈ 0.121 µM); MIC [20]: 12.5 µg/mL (≈ 15.1 µM); MIC [21]: 0.1 µg/mL (≈ 0.121 µM); MIC [22]: 0.02 µg/mL (≈ 0.0241 µM)
